Reference: BindingDB's records for doi:10.7270/Q2S75DRW (Burnham Center For Chemical Genomics, 2008)

Molecular target: Heat shock 70 kDa protein 1A (Homo sapiens, UniProt V9GZ37)
Experiment: inhibition of Hsp70 binding activity – biochemical, fluorescence polarization, SAR follow-up (AID 1072)

Sequence of Heat shock 70 kDa protein 1A (V9GZ37 whole entry): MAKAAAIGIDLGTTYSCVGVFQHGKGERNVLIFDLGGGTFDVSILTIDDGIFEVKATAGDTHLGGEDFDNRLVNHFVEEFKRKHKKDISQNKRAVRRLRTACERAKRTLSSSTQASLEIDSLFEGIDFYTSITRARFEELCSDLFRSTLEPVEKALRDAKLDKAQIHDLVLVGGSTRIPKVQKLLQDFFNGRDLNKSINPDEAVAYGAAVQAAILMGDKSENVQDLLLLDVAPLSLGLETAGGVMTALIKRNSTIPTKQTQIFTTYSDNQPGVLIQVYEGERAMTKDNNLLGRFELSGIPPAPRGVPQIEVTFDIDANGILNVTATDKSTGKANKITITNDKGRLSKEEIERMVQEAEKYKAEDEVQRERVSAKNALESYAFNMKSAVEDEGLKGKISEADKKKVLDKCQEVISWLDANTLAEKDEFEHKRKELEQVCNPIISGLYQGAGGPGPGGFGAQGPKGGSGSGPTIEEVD

## O=C1C=C2CC3(O)CCc4c(ccc(O)c4O)C3=C2CC1=O (stereo unspecified) [3,4,6a,10-tetrakis(oxidanyl)-6,7-dihydro-5H-benzo[g]fluoren-9-one]
  IC50: 34.2 µM
